Measured values: ChEMBL document CHEMBL5247626, “In vitro and in vivo biological evaluation of newly synthesized multi-target 20(R)-panaxadiol derivatives for treating Alzheimer's disease” (Eur J Med Chem, 2022)
Calls of active or inactive are those of the source. The calls are words filed in the database; no cut-off is given here.

Columns and labels:
Mus musculus [1] = experiment: Antialzheimer activity against amyloid beta (25 to 35)-induced brain injury ICR mouse model assessed as increase in NeuN expression level in cerebral cortex at 50 mg/kg,po administrated for 21 days by immunohistochemistry analysis; format: functional, organism-based; conditions: time 21.0 day
PC-12 [2] = experiment: Neuroprotective activity against amyloid beta (25 to 35)-induced rat PC12 cells assessed as decrease in JNK expression level at 7.5 to 30 uM preincubated for 30 mins followed by amyloid beta (25 to 35) addition and measured after 24 hrs by western blot assay; format: functional, cell-based; conditions: dose 7.5-30 µM, time 24.5 hrs
[3] = Cmax in Sprague-Dawley rat at 60 mg/kg,po measured at 0.25 to 24 hrs post administration by LC-MS/MS analysis; format: ADME, organism-based; parameters: dose 60 mg/kg, time upper 24 hrs, time lower 0.25 hrs, route po; conditions: in vivo
[4] = MRT (0 to t) in Sprague-Dawley rat at 60 mg/kg,po measured at 0.25 to 24 hrs post administration by LC-MS/MS analysis; format: ADME, organism-based; conditions: in vivo, time 0.25-24 hrs
Mus musculus [5] = experiment: Antialzheimer activity against amyloid beta (25 to 35)-induced cognitive deficit ICR mouse model assessed as increase in preferential index at 50 mg/kg,po observed after 24 hrs of administration by novel object recognition test; format: functional, organism-based
PC-12 [6] = experiment: Neuroprotective activity against amyloid beta (25 to 35)-induced rat PC12 cells assessed as decrease in TNF-alpha expression level at 7.5 to 30 uM preincubated for 30 mins followed by amyloid beta (25 to 35) addition and measured after 24 hrs by western blot assay; format: functional, cell-based; conditions: dose 7.5-30 µM, time 24.5 hrs
Mus musculus [7] = experiment: Antialzheimer activity against amyloid beta (25 to 35)-induced cognitive deficit ICR mouse model assessed as increase in discrimination index at 50 mg/kg,po observed after 24 hrs of administration by novel object recognition test; format: functional, organism-based
PC-12 [8] = experiment: Neuroprotective activity against amyloid beta (25 to 35)-induced rat PC12 cells assessed as decrease in NF-kappaB expression level at 7.5 to 30 uM preincubated for 30 mins followed by amyloid beta (25 to 35) addition and measured after 24 hrs by western blot assay; format: functional, cell-based; conditions: dose 7.5-30 µM, time 24.5 hrs
Mus musculus [9] = experiment: Antialzheimer activity against amyloid beta (25 to 35)-induced brain injury ICR mouse model assessed as increase in NeuN expression level in hippocampal CA1 region at 50 mg/kg,po administrated for 21 days by immunohistochemistry analysis; format: functional, organism-based; conditions: time 21.0 day
PC-12 [10] = experiment: Neuroprotective activity against amyloid beta (25 to 35)-induced rat PC12 cells assessed as decrease in tau hyperphosphorylation at Thr181 at 7.5 to 30 uM preincubated for 30 mins followed by amyloid beta (25 to 35) addition and measured after 24 hrs by western blot assay; format: functional, cell-based; conditions: dose 7.5-30 µM, time 24.5 hrs
PC-12 [11] = experiment: Neuroprotective activity against rat PC12 cells assessed as reduction in amyloid beta (25 to 35)-induced cytotoxicity at 15 uM incubated for 4 hrs followed by amyloid beta (25 to 35) treatment for 24 hrs by MTT assay relative to control; format: functional; parameters: scale not given: the % may be the effect or the level left; conditions: time 28 hrs
PC-12 [12] = experiment: Neuroprotective activity against amyloid beta (25 to 35)-induced rat PC12 cells assessed as decrease in IL-1beta expression level at 7.5 to 30 uM preincubated for 30 mins followed by amyloid beta (25 to 35) addition and measured after 24 hrs by western blot assay; format: functional, cell-based; conditions: dose 7.5-30 µM, time 24.5 hrs
Mus musculus [13] = experiment: Antialzheimer activity against amyloid beta (25 to 35)-induced cognitive deficit ICR mouse model assessed as attenuation of behavioral deficit at 50 mg/kg,po observed after 12 to 15 days of administration by Y maze test; format: functional, organism-based; conditions: time 12-15 day
[14] = Toxicity in ICR mouse assessed as pathological changes in spleen at 12.5 to 50 mg/kg,po administrated for 20 days by hematoxylin and eosin staining based microscopic analysis; format: organism-based; conditions: in vivo, 480 h, dose 12.5-50 mg/kg, time 20 day
[15] = Cytotoxicity against human HepG2 cells assessed as cell viability at 120 uM incubated for 24 hrs by MTT assay; format: toxicity, cell-based; conditions: read-out: Activity
PC-12 [16] = experiment: Neuroprotective activity against amyloid beta (25 to 35)-induced rat PC12 cells assessed as decrease in beta-secretase protein expression level at 3.75 to 30 uM incubated for 30 mins followed by amyloid beta (25 to 35) addition and measured after 24 hrs by ELISA; format: functional, cell-based; conditions: dose 3.75-30 µM, time 24.5 hrs
[17] = Half life in Sprague-Dawley rat at 10 mg/kg,iv measured at 0.083 to 24 hrs post administration by LC-MS/MS analysis; format: ADME, organism-based; conditions: in vivo, time 0.083-24 hrs
[18] = Toxicity in ICR mouse assessed as pathological changes in kidney at 12.5 to 50 mg/kg,po administrated for 20 days by hematoxylin and eosin staining based microscopic analysis; format: organism-based; conditions: in vivo, 480 h, dose 12.5-50 mg/kg, time 20 day
[19] = Volume of distribution of steady state in Sprague-Dawley rat at 10 mg/kg,iv measured at 0.083 to 24 hrs post administration by LC-MS/MS analysis; format: ADME, organism-based; conditions: in vivo, time 0.083-24 hrs, read-out: Vdss
Mus musculus [20] = experiment: Antialzheimer activity against amyloid beta (25 to 35)-induced cognitive deficit ICR mouse model assessed as increase in preferential index at 25 mg/kg,po observed after 1 hr of administration by novel object recognition test; format: functional, organism-based
PC-12 [21] = experiment: Neuroprotective activity against rat PC12 cells assessed as reduction in amyloid beta (25 to 35)-induced cytotoxicity incubated for 4 hrs followed by amyloid beta (25 to 35) treatment for 24 hrs by MTT assay; format: functional, cell-based
HepG2 = experiment: Cytotoxicity against human HepG2 cells assessed as decrease in cell viability at 120 uM incubated for 24 hrs by MTT assay; format: toxicity, cell-based; conditions: hepg2, 24 h
PC-12 [22] = experiment: Neuroprotective activity against amyloid beta (25 to 35)-induced rat PC12 cells assessed as decrease in total tau protein expression level at 7.5 to 30 uM preincubated for 30 mins followed by amyloid beta (25 to 35) addition and measured after 24 hrs by western blot assay; format: functional, cell-based; conditions: dose 7.5-30 µM, time 24.5 hrs
Mus musculus [23] = experiment: Antialzheimer activity against amyloid beta (25 to 35)-induced cognitive deficit ICR mouse model assessed as effect on total number of arm enteries at 12.5 to 50 mg/kg,po observed after 11 days of administration by Y maze test; format: functional, organism-based; conditions: dose 12.5-50 mg/kg, time 11.0 day
Mus musculus [24] = experiment: Antialzheimer activity against amyloid beta (25 to 35)-induced cognitive deficit ICR mouse model assessed as increase in preferential index at 50 mg/kg,po observed after 1 hr of administration by novel object recognition test; format: functional, organism-based
[25] = AUC (0-infinity) in Sprague-Dawley rat at 10 mg/kg,iv measured at 0.083 to 24 hrs post administration by LC-MS/MS analysis; format: ADME, organism-based; parameters: dose 10 mg/kg, time 0.083-24 hrs, route iv; conditions: in vivo
N2a [26] = experiment: Cytotoxicity against mouse Neuro2a cells assessed as decrease in cell viability at 120 uM incubated for 24 hrs by MTT assay; format: toxicity, cell-based
N2a [27] = experiment: Cytotoxicity against mouse Neuro2a cells assessed as effect on survival at < 60 uM incubated for 24 hrs by MTT assay; format: toxicity, cell-based
HUVEC = experiment: Cytotoxicity against human HUVEC cells assessed as effect on survival at < 60 uM incubated for 24 hrs by MTT assay; format: toxicity, cell-based
PC-12 [28] = experiment: Neuroprotective activity against amyloid beta (25 to 35)-induced rat PC12 cells assessed as decrease in p38 phosphorylation level at 7.5 to 30 uM preincubated for 30 mins followed by amyloid beta (25 to 35) addition and measured after 24 hrs by western blot assay; format: functional, cell-based; conditions: dose 7.5-30 µM, time 24.5 hrs

CC1(C)CCC[C@](C)([C@H]2CC[C@]3(C)[C@@H]2[C@H](O)C[C@@H]2[C@@]4(C)CC[C@H](OC(=O)NCc5ccccc5)C(C)(C)[C@@H]4CC[C@]23C)O1
Activity (Mus musculus [1]): Active | Activity (PC-12 [2]): Active | Cmax [3]: 220 ng/mL | MRT last [4]: 2.24 h | Activity (Mus musculus [5]): Active | Activity (PC-12 [6]): Active | Activity (Mus musculus [7]): Active | Activity (PC-12 [8]): Active | Activity (Mus musculus [9]): Active | Activity (PC-12 [10]): Active | Activity (PC-12 [11]): 73.01% | Activity (PC-12 [12]): Active | Activity (Mus musculus [13]): Active | Activity [14]: Non-Toxic | viability at 24 h, 120 µM [15]: > 50% | Activity (PC-12 [16]): Active | half-life [17]: 2.6 h | Activity [18]: Non-Toxic | Vd [19]: 0.133 L/kg | Activity (Mus musculus [20]): inactive | EC50 (PC-12 [21]): 13.2 µM | Activity (HepG2): Toxic | Activity (PC-12 [22]): Active | Activity (Mus musculus [23]): inactive | Activity (Mus musculus [24]): inactive | AUC(0-inf) [25]: 40700 ng·h/mL | Activity (N2a [26]): Toxic | Activity (N2a [27]): Non-Toxic | Activity (HUVEC): Non-Toxic | Activity (PC-12 [28]): Active
